Measured values as given in the NIST ThermoML archive (doi:10.1021/je501178z).
Several values for one entry are separate records, joined by “and”; a condition that tells them apart may be missing. Equal entries are not always repeated.

Assay: mn = molality of the nth substance listed, in mol/kg
Conditions: 101.3 kPa, Liquid; for viscosity: Capillary tube (Ostwald / Ubbelohde) method; for mass density: Vibrating tube method

NCC(=O)O [2-aminoacetic acid] + O
Conditions	mass density, 293.15 K [kg/m3]	mass density, 303.15 K [kg/m3]	mass density, 313.15 K [kg/m3]	mass density, 323.15 K [kg/m3]	viscosity, 293.15 K [mPa·s]	viscosity, 303.15 K [mPa·s]	viscosity, 313.15 K [mPa·s]	viscosity, 323.15 K [mPa·s]
m1 = 0.1002	1001.41	998.8	–	991.11	1.015	0.809	0.663	0.555
m1 = 0.2	1004.57	1001.91	–	994.14	1.029	0.82	0.672	0.563
m1 = 0.3002	1007.7	1004.98	1001.42	997.14	1.042	0.831	0.681	0.571
m1 = 0.4001	1010.77	1008	1004.4	1000.09	1.057	0.842	0.691	0.579
m1 = 0.5001	1013.8	1010.98	1007.35	1003.01	1.072	0.855	0.701	0.587
m1 = 0.6	1016.78	1013.91	1010.25	1005.88	1.086	0.867	0.711	0.596
m1 = 0.6998	1019.71	1016.8	1013.11	1008.72	1.101	0.878	0.721	0.605

C[C@H](N)C(=O)O [(S)-2-aminopropanoic acid] + O
Conditions	mass density, 293.15 K [kg/m3]	mass density, 303.15 K [kg/m3]	mass density, 313.15 K [kg/m3]	mass density, 323.15 K [kg/m3]	viscosity, 293.15 K [mPa·s]	viscosity, 303.15 K [mPa·s]	viscosity, 313.15 K [mPa·s]	viscosity, 323.15 K [mPa·s]
m1 = 0.1	1001.06	998.48	995.01	990.81	1.027	0.817	0.668	0.559
m1 = 0.2	1003.88	1001.27	997.76	993.55	1.053	0.837	0.684	0.571
m1 = 0.3	1006.66	1004.01	1000.47	996.24	1.079	0.856	0.7	0.584
m1 = 0.4002	1009.39	1006.71	1003.14	998.9	1.107	0.877	0.715	0.596
m1 = 0.5001	1012.06	1009.35	1005.76	1001.5	1.134	0.897	0.731	0.609
m1 = 0.6002	1014.69	1011.95	1008.33	1004.06	1.163	0.919	0.749	0.622
m1 = 0.6999	1017.27	1014.5	1010.86	1006.58	1.191	0.94	0.765	0.635

OC[C@@H](O)[C@@H](O)[C@H](O)[C@H](O)CO [D-mannitol] + O
Conditions	mass density, m1 = 0.2 [kg/m3]	mass density, m1 = 0.4	mass density, m1 = 0.6 [kg/m3]	mass density, m1 = 0.8 [kg/m3]	mass density, m1 = 1 [kg/m3]	viscosity, m1 = 0.2 [mPa·s]	viscosity, m1 = 0.4	viscosity, m1 = 0.6 [mPa·s]	viscosity, m1 = 0.8 [mPa·s]	viscosity, m1 = 1
293.15 K	1010.52	1022.31 kg/m3	1033.43	1043.98	1054.13	1.104	1.221 mPa·s	1.336	1.494	1.643 mPa·s
303.15 K	1007.82	1019.39 kg/m3	1030.35	1040.88	1050.85	0.874	0.959 mPa·s	1.044	1.151	1.262 mPa·s
313.15 K	1004.26	1015.71 kg/m3 and 1015.74 kg/m3	1026.6	1036.92	1046.79	0.711	0.775 mPa·s and 0.776 mPa·s	0.841	0.917	1.001 mPa·s and 1 mPa·s
323.15 K	999.96	1011.28 kg/m3	1022.09	1032.28	1042.15	0.592	0.642 mPa·s	0.693	0.752	0.814 mPa·s

N=C(N)NCCC[C@H](N)C(=O)O [L-arginine] + O
Conditions	mass density, 293.15 K [kg/m3]	mass density, 303.15 K [kg/m3]	mass density, 313.15 K [kg/m3]	mass density, 323.15 K [kg/m3]	viscosity, 293.15 K [mPa·s]	viscosity, 303.15 K [mPa·s]	viscosity, 313.15 K [mPa·s]	viscosity, 323.15 K [mPa·s]
m1 = 0.1	1003.17	1000.55	997.05	992.84	1.054	0.838	0.685	0.572
m1 = 0.2	1008	1005.3	1001.75	997.5	1.108	0.879	0.717	0.598
m1 = 0.3001	1012.68	1009.91	1006.31	1002.03	1.167	0.923	0.751	0.625
m1 = 0.4	1017.21	1014.38	1010.73	1006.41	1.23	0.97	0.788	0.654
m1 = 0.5	1021.6	1018.71	1015.01	1010.67	1.298	1.021	0.826	0.684
m1 = 0.6	1025.86	1022.9	1019.15	1014.8	1.362	1.069	0.864	0.714
m1 = 0.7	1030	1026.97	1023.18	1018.82	1.435	1.124	0.905	0.747

C[C@@H](O)[C@H](N)C(=O)O [L-threonine] + O
Conditions	mass density, 293.15 K [kg/m3]	mass density, 303.15 K [kg/m3]	mass density, 313.15 K [kg/m3]	mass density, 323.15 K [kg/m3]	viscosity, 293.15 K [mPa·s]	viscosity, 303.15 K [mPa·s]	viscosity, 313.15 K [mPa·s]	viscosity, 323.15 K [mPa·s]
m1 = 0.0999	1002.41	999.81	996.32	992.11	1.035	0.823	0.673	0.562
m1 = 0.1999	1006.56	1003.9	1000.37	996.12	1.072	0.849	0.693	0.579
m1 = 0.2999	1010.63	1007.92	1004.34	1000.05	1.107	0.876	0.714	0.595
m1 = 0.4002	1014.64	1011.87	1008.25	1003.93	1.145	0.905	0.736	0.613
m1 = 0.5	1018.55	1015.73	1012.07	1007.71	1.184	0.934	0.759	0.63
m1 = 0.6	1022.4	1019.52	1015.83	1011.44	1.225	0.965	0.782	0.649
m1 = 0.6998	1026.16	1023.24	1019.52	1015.1	1.269	0.996	0.806	0.667

CC(C)[C@H](N)C(=O)O [L-valine] + O
Conditions	mass density, m1 = 0.1 [kg/m3]	mass density, m1 = 0.2001 [kg/m3]	mass density, m1 = 0.3001 [kg/m3]	mass density, m1 = 0.4002 [kg/m3]	mass density, m1 = 0.5 [kg/m3]	viscosity, m1 = 0.1 [mPa·s]	viscosity, m1 = 0.2001 [mPa·s]	viscosity, m1 = 0.3001 [mPa·s]	viscosity, m1 = 0.4002 [mPa·s]	viscosity, m1 = 0.5 [mPa·s]
293.15 K	1000.88	1003.51	1006.08	1008.6	1011.05	1.044	1.089	1.135	1.184	1.233
303.15 K	998.29	1000.88	1003.41	1005.89	1008.31	0.829	0.862	0.896	0.929	0.965
313.15 K	994.81	997.37	999.88	1002.33	1004.72	0.678	0.702	0.728	0.753	0.779
323.15 K	990.6	993.11	995.57	997.98	1000.34	0.565	0.585	0.604	0.624	0.644
